Laboratory results as given in patent US20260027118A1, “COMPOSITIONS USEFUL FOR MODULATING SPLICING” (Skyhawk Therapeutics, Inc., priority 2022, published 2026).

System: ATXN3-HiBiT protein
Experiment: ATXN3 HiBiT assay (Nano Glo HiBiT luminescence)
Format: cell-based
Conditions: Kelly-ATXN3-HiBiT cells, luminescence read out 48 h after addition of the compound
Text: To monitor ATXN3 protein levels by luminescence, a Kelly-ATXN3-HiBiT cell line with homozygous knock-in of HiBiT at the C-terminus of the endogenous ATXN3 gene was used (knock-in of the HiBiT-tag coding sequence SEQ ID NO. 14: 5′[…]3′ into exon 11 of ATXN3 -position 1114 of ATXN3 RefSeq NM_004993.6). Manipulations of the Kelly-ATXN3-HiBiT cell line that result in downregulation of the ATXN3-HiBiT protein (through modulation of ATXN3-HiBiT pre-mRNA splicing) can be followed by monitoring the luminescence signal of the HiBiT tag using the Nano Glo HiBiT Lytic Detection System (Promega, #N3050). Kelly-ATXN3-HiBiT cells were maintained in RPMI 1640 w/Glutamax (Gibco, #61870010), 10% FBS (Sigma Aldrich, #F8687), 1% Penicillin/Streptomycin (Gibco, #15140-122) at 37° C., 5% CO2. To assess HiBiT-luminescence signal upon compound treatment, 2000 Kelly-ATXN3-HiBiT cells were seeded per well in 384 plate format. Compounds were added 24 h after seeding. ATXN3-HiBiT-luminescence signal was read out 48 h after addition of the compound using the Nano Glo HiBiT Lytic Detection System (Promega, #N3050) according to the manufacturer's instructions. To control for cell viability, an identically prepared sister plate was read out with the CellTiter-Glo® 2.0 Assay (Promega, #G9243) according to the manufacturer's instructions. Fold changes of ATXN3-HiBiT-luminescence and of CellTiter-Glo viability signals were calculated relative to a DMSO control condition.

EC50 [nM]	Molecule
0.01 to 100	[2H]C([2H])([2H])OC([2H])([2H])[C@H](N)Cc1oc2c(NCc3cccs3)cc(Cl)nc2c1C#CC [Compound 47, 2-[(R)-2-amino-3-(^2H3)methoxy(3,3-^2H2)propyl]-5-chloro-3-(1-propynyl)-7-thenylamino-1-oxa-4-azaindene]
0.01 to 100	[2H]C([2H])([2H])OC[C@H](N)Cc1oc2c(NC([2H])([2H])c3cccs3)cc(Cl)nc2c1C#CC [Compound 40, 2-[(R)-2-amino-3-(^2H3)methoxypropyl]-5-chloro-3-(1-propynyl)-7-{[(2-thienyl)(^2H2)methyl]amino}-1-oxa-4-azaindene]
0.01 to 100	[2H]C([2H])(c1oc2c(NCc3cccs3)cc(Cl)nc2c1C#CC)[C@@H](N)CF [Compound 45, 2-[(R)-2-amino-3-fluoro(1,1- ^2H2)propyl]-5-chloro-3-(1-propynyl)-7-thenylamino-1-oxa-4-azaindene]
0.01 to 100	[2H]C([2H])([2H])OC[C@H](N)Cc1oc2c(NCc3cccs3)cc(Cl)nc2c1C#CC [Compound 35, 2-[2-amino-3-(^2H3)methoxypropyl]-5-chloro-3-(1-propynyl)-7-thenylamino-1-oxa-4-azaindene]
0.01 to 100	[2H]C([2H])(OC(F)F)[C@H](N)Cc1oc2c(NCc3cccs3)cc(Cl)nc2c1C#CC [Compound 48, 2-[(R)-2-amino-3-difluoromethoxy(3,3-^2H2)propyl]-5-chloro-3-(1-propynyl)-7-thenylamino-1-oxa-4-azaindene]
0.01 to 100	[2H]C([2H])([2H])OCC[C@H](N)Cc1oc2c(NCc3cccs3)cc(Cl)nc2c1C#CC [Compound 42, 2-[(S)-2-amino-4-(^2H3)methoxybutyl]-5-chloro-3-(1-propynyl)-7-thenylamino-1-oxa-4-azaindene]

The remaining lines, values behind:

Molecule	EC50 [nM]
[2H]C([2H])(c1oc2c(NCc3cccs3)cc(Cl)nc2c1C#CC)[C@H](C)N [Compound 43, 2-[(S)-2-amino(1,1-^2H2)propyl]-5-chloro-3-(1-propynyl)-7-thenylamino-1-oxa-4-azaindene]	0.01 to 100
CC#Cc1c(C[C@@H](N)[C@H](C)F)oc2c(NCc3ccccc3F)cc(Cl)nc12 [Compound 13, 2-[(2R,3S)-2-amino-3-fluorobutyl]-5-chloro-7-{[(o-fluorophenyl)methyl]amino}-3-(1-propynyl)-1-oxa-4-azaindene]	501 to 5000
CC#Cc1c(C[C@@H](N)CCOC(F)F)oc2c(NCc3cccs3)cc(Cl)nc12 [Compound 31, 2-[(S)-2-amino-4-difluoromethoxybutyl]-5-chloro-3-(1-propynyl)-7-thenylamino-1-oxa-4-azaindene]	0.01 to 100
CC#Cc1c(C[C@@H](N)[C@H](C)F)oc2c(NCc3c(F)cccc3F)cc(Cl)nc12 [Compound 14, 2-[(2R,3S)-2-amino-3-fluorobutyl]-5-chloro-7-{[(2,6-difluorophenyl)methyl]amino}-3-(1-propynyl)-1-oxa-4-azaindene]	10000 to 40000
2-[(R)-2-amino-3-methoxy(1,1- ^2H2)propyl]-5-chloro-3-(1- propynyl)-7-thenylamino-1-oxa-4- azaindene [Compound 44]	0.01 to 100
CC#Cc1c(C[C@@H](N)CO)oc2c(NCc3cccs3)cc(Cl)nc12 [Compound 34, (R)-2-amino-3-[5-chloro-3-(1-propynyl)-7-thenylamino-1-oxa-4-aza-2-indenyl]-1-propanol]	0.01 to 100
